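Cultured in 96-well plates, cells were exposed to test compound for 48 hours across five concentrations. GI50 marks 50% less growth. TGI is the concentration that stops growth completely.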 Some results are limits rather than exact numbers.

Drawing on PubChem BioAssay (NCI), this text covers GI50 and TGI for eleven compounds.

Among the test systems are SK-MEL-2 melanoma; SN12C renal; NCI/ADR-RES ovarian; A498 renal; SF-295 CNS; A549 NSCLC; SNB-19 CNS; NCI-H522 lung; OVCAR-8 ovarian; SNB-75 CNS.
What all share (assay): growth of human tumour cells (NCI), 48 h

As for `O[C@@H]1CCCCN1Cc1cc2cc3c(cc2c2cc(OCc4ccccc4)ccc12)OCO3`, the GI50 was 1700 nM in the experiment with SK-MEL-2 melanoma; 1420 nM in the experiment on SN12C renal; 1500 nM in the experiment with NCI/ADR-RES ovarian; 1410 nM with A498 renal; 1590 nM in the experiment with SF-295 CNS; 1620 nM in the experiment on A549 NSCLC. For the same compound, the GI50 with SNB-19 CNS was 1630 nM; in the experiment on NCI-H522 lung, 1490 nM; with OVCAR-8 ovarian, 1190 nM; in the experiment on SNB-75 CNS, 1660 nM. For the same compound, the TGI came to 3.16 µM with SK-MEL-2 melanoma; 2.77 µM with SN12C renal; 3.47 µM in the experiment with NCI/ADR-RES ovarian; 2.75 µM in the experiment on A498 renal; 3.03 µM in the experiment on SF-295 CNS; 3.31 µM in the experiment on A549 NSCLC. The TGI in the experiment on SNB-19 CNS stood at 3.59 µM; in the experiment with NCI-H522 lung it was 2.91 µM; in the experiment with OVCAR-8 ovarian it was 3.03 µM; with SNB-75 CNS it was 3.08 µM.

In the case of `COc1ccc(CC(COS(=O)(=O)c2ccc(C)cc2)NS(=O)(=O)c2ccc(C)cc2)cc1` (stereo not given), the TGI is 44.7 µM in the experiment with SK-MEL-2 melanoma; 36.1 µM in the experiment on SN12C renal; > 52.7 µM in the experiment on NCI/ADR-RES ovarian; 35.8 µM in the experiment with A498 renal; 33.6 µM in the experiment with SF-295 CNS; > 62.2 µM in the experiment with A549 NSCLC. Further, the TGI in the experiment with SNB-19 CNS is 32.6 µM; in the experiment with NCI-H522 lung, 22.9 µM; in the experiment on OVCAR-8 ovarian, > 100 µM; with SNB-75 CNS it was 28.4 µM.

Take `CC(=O)OCC1OC(NC(=S)Nn2c(-c3ccccc3)nc3ccccc3c2=O)C(OC(C)=O)C(OC(C)=O)C1OC(C)=O` (stereo not given): the TGI in the experiment with SK-MEL-2 melanoma is 68.3 µM; with SN12C renal, > 100 µM; in the experiment with NCI/ADR-RES ovarian, > 100 µM; in the experiment on A498 renal, > 100 µM; with SF-295 CNS it was > 100 µM; in the experiment with A549 NSCLC, > 100 µM. Further, the TGI in the experiment on SNB-19 CNS, in the experiment with NCI-H522 lung, in the experiment with OVCAR-8 ovarian and with SNB-75 CNS was > 100 µM each time.

`O=C(NNC(=O)c1cc2ccccc2[nH]1)c1cc2ccccc2[nH]1`: the TGI in the experiment with SK-MEL-2 melanoma, in the experiment with SN12C renal, in the experiment on NCI/ADR-RES ovarian, in the experiment with A498 renal, with SF-295 CNS and in the experiment on A549 NSCLC was > 100 µM throughout. The TGI with SNB-19 CNS, with NCI-H522 lung, in the experiment on OVCAR-8 ovarian and in the experiment with SNB-75 CNS was > 100 µM each time.

Take `CCO/C=N\C1=C(C#N)SC2=N/C(=C\c3ccco3)C(=O)N21`: the TGI in the experiment with SK-MEL-2 melanoma, with SN12C renal, with NCI/ADR-RES ovarian, in the experiment on A498 renal, in the experiment with SF-295 CNS and in the experiment with A549 NSCLC was > 100 µM each time. For the same compound, the TGI in the experiment on SNB-19 CNS, with NCI-H522 lung, in the experiment on OVCAR-8 ovarian and in the experiment with SNB-75 CNS was > 100 µM throughout.

In the case of `COC(=O)[C@@H](N1C(=O)c2ccccc2C1=O)C1(C)CC(Cl)=NO1` (stereo not given in full), the TGI was > 100 µM in the experiment on SK-MEL-2 melanoma; > 100 µM in the experiment on SN12C renal; 68.2 µM with NCI/ADR-RES ovarian; 99.7 µM in the experiment with A498 renal; 74.3 µM in the experiment with SF-295 CNS; > 100 µM in the experiment with A549 NSCLC. In addition, the TGI came out at 56.2 µM in the experiment with SNB-19 CNS, 79.1 µM with NCI-H522 lung, 37 µM in the experiment with OVCAR-8 ovarian and 35.9 µM in the experiment with SNB-75 CNS.

Regarding `Cc1c(CNc2ccc(Cl)c(Cl)c2Cl)cnc2nc(N)nc(N)c12`, the TGI in the experiment with SK-MEL-2 melanoma is > 90 µM; in the experiment with SN12C renal it was > 100 µM; in the experiment on NCI/ADR-RES ovarian, > 100 µM; in the experiment with A498 renal, > 100 µM; in the experiment with SF-295 CNS, 3.16 µM; in the experiment on A549 NSCLC, > 41.3 µM. For the same compound, the TGI was > 59.9 µM with SNB-19 CNS, > 45.2 µM with NCI-H522 lung, 1.41 µM with OVCAR-8 ovarian and 24.3 µM in the experiment with SNB-75 CNS.

As to `O=c1oc2cc(O)ccc2c(O)c1C(c1ccc(/C=C/c2ccccc2)cc1)c1c(O)c2ccc(O)cc2oc1=O`, the TGI in the experiment with SK-MEL-2 melanoma, with SN12C renal, in the experiment on NCI/ADR-RES ovarian, in the experiment with A498 renal, in the experiment with SF-295 CNS and in the experiment on A549 NSCLC was > 100 µM in each case. The TGI in the experiment with SNB-19 CNS, in the experiment with NCI-H522 lung, with OVCAR-8 ovarian and in the experiment with SNB-75 CNS was > 100 µM each time.

In the case of `CCOC(=O)n1c(=O)nc2c3c(ncn21)Oc1c(c(-c2ccccc2)nn1-c1ccccc1)C3c1ccc(Cl)cc1` (stereo not given), the TGI stood at 3.23 µM in the experiment with SK-MEL-2 melanoma; 3.21 µM in the experiment with SN12C renal; 3.11 µM in the experiment on NCI/ADR-RES ovarian; 3.85 µM in the experiment with A498 renal; 3.26 µM in the experiment with SF-295 CNS; 3.01 µM in the experiment with A549 NSCLC. Also, the TGI in the experiment with SNB-19 CNS came to 2.95 µM; in the experiment on NCI-H522 lung it was 3.11 µM; in the experiment on OVCAR-8 ovarian, 3.06 µM; in the experiment on SNB-75 CNS it was 4.75 µM.

In the case of `O=C(O)CN1CCN2CCOCCN(CC1)CCN(CC(=O)O)CC2`, the TGI in the experiment on SK-MEL-2 melanoma, in the experiment with SN12C renal, in the experiment on NCI/ADR-RES ovarian, with A498 renal, in the experiment with SF-295 CNS and in the experiment with A549 NSCLC was > 100 µM each time. Besides, the TGI in the experiment with SNB-19 CNS, in the experiment with NCI-H522 lung, with OVCAR-8 ovarian and with SNB-75 CNS was > 100 µM each time.

`CC(C)C1CC(CO)(CNc2nc(N)nc(Cl)c2C=O)C1` (stereo not given): the TGI in the experiment on SK-MEL-2 melanoma was 3.31 µM; in the experiment on SN12C renal, 28.5 µM; in the experiment with NCI/ADR-RES ovarian, 23.8 µM; in the experiment with A498 renal it was 56.1 µM; with SF-295 CNS, 44.4 µM; with A549 NSCLC, 31.4 µM. For the same compound, the TGI stood at 17.1 µM in the experiment with SNB-19 CNS, 1.14 µM in the experiment with NCI-H522 lung, 8.33 µM in the experiment with OVCAR-8 ovarian and 15.4 µM in the experiment with SNB-75 CNS.
